Columns and labels:
[1] = Dynamic change of the concentration of HpD and HMME in chicken blood; format: in vivo; settings: 10 mg/kg neck vein
Protocol: HpD and HMME in chicken blood were monitored at various times after injection. HpD or HMME was injected in chicken neck veins at a dose of 10 mg/kg, taking a blood sample every 10 minutes following injection. […] The two curves shown in FIG. 2 have generally the same pattern.

[2] = PDT for PWS, adverse effects and crust levels; format: in vivo, human
Protocol: A solution of 1 ml saline was injected in the superficial vein (e.g. median cubital vein) of patients to ensure no liquid leaked into tissues adjacent to the blood vessels into which the injection was made. At the same site, HMME was injected intravenously for 20 minutes with a constant flow rate by using an infusion pump. The doses applied were 2.5 mg/kg body weight or 5.0 mg/kg body weight. Next, 2-4 ml of saline solution was again injected to prevent the drugs from aggregating locally. Irradiation with KTP532 laser was then applied to the patient's lesion site 0-10 minutes after the start of injection, for a total duration of irradiation of either 20 minutes (denoted as the 20 min group), or 30 minutes (denoted as the 30 minute group). […] When irradiation was started immediately after the start of injection, the overlap between the injection and irradiation was about 20 minutes, when irradiation started 5 minutes after the start of injection, the overlap between drug injection and light irradiation was approximately 15 minutes, and when irradiation was started 10 minutes after the start of injection, the overlap was about 10 minutes. The therapeutic results were measured 8 weeks after the treatment. The most common adverse temporary effects included swelling, burning, redness, pain, blister and crust formation in PDT for PWS and these symptoms occurred in almost every case. Scar or crust thickness was measured as thickening of crusts. The crust levels served as an assessment index for scars.

[3] = Part A, 5.0 mg/kg, patients treated for 20 min
[4] = Part B, 2.5 mg/kg group, irradiated 20 min
[5] = Part B, 5.0 mg/kg group, irradiated 20 min
[6] = Part B, 2.5 and 5.0 mg/kg, irradiated 20 min

hematoporphyrin monomethyl ether [HMME]
Photosensitizer concentration in chicken blood ([1]; post-injection time 10 min): 6.83 µg/mL | Photosensitizer concentration in chicken blood ([1]; post-injection time 20 min): 5.92 µg/mL | Photosensitizer concentration in chicken blood ([1]; post-injection time 30 min): 5.33 µg/mL | Photosensitizer concentration in chicken blood ([1]; post-injection time 40 min): 4.83 µg/mL | Photosensitizer concentration in chicken blood ([1]; post-injection time 50 min): 4.49 µg/mL | Photosensitizer concentration in chicken blood ([1]; post-injection time 60 min): 4.17 µg/mL | Photosensitizer concentration in chicken blood ([1]; post-injection time 70 min): 3.83 µg/mL | Photosensitizer concentration in chicken blood ([1]; post-injection time 80 min): 3.58 µg/mL | Photosensitizer concentration in chicken blood ([1]; post-injection time 90 min): 3.51 µg/mL | Photosensitizer concentration in chicken blood ([1]; post-injection time 100 min): 2.67 µg/mL | Photosensitizer concentration in chicken blood ([1]; post-injection time 110 min): 2.42 µg/mL | Photosensitizer concentration in chicken blood ([1]; post-injection time 120 min): 1.99 µg/mL | time after injection at which serum concentration reaches a peak ([1]; chicken): 10 min | Blister, Mild (cases) ([2]; 5.0 mg/kg, 20 min group): 0 | Blister, Moderate (cases) ([2]; 5.0 mg/kg, 20 min group): 0 | Blister, Rate (%) ([2]; 5.0 mg/kg, 20 min group): 0.0% | Blister, total (cases) ([2]; 5.0 mg/kg, 20 min group): 10 | Burning, Mild (cases) ([2]; 5.0 mg/kg, 20 min group): 0 | Burning, Moderate (cases) ([2]; 5.0 mg/kg, 20 min group): 0 | Burning, Rate (%) ([2]; 5.0 mg/kg, 20 min group): 0.0% | Burning, total (cases) ([2]; 5.0 mg/kg, 20 min group): 0 | Pain, Mild (cases) ([2]; 5.0 mg/kg, 20 min group): 1 | Pain, Moderate (cases) ([2]; 5.0 mg/kg, 20 min group): 9 | Pain, Rate (%) ([2]; 5.0 mg/kg, 20 min group): 50.0% | Pain, total (cases) ([2]; 5.0 mg/kg, 20 min group): 10 | Redness, Mild (cases) ([2]; 5.0 mg/kg, 20 min group): 0 | Redness, Moderate (cases) ([2]; 5.0 mg/kg, 20 min group): 0 | Redness, Rate (%) ([2]; 5.0 mg/kg, 20 min group): 0.0% | Redness, total (cases) ([2]; 5.0 mg/kg, 20 min group): 0 | Swelling, Mild (cases) ([2]; 5.0 mg/kg, 20 min group): 9 | Swelling, Moderate (cases) ([2]; 5.0 mg/kg, 20 min group): 9 | Swelling, Rate (%) ([2]; 5.0 mg/kg, 20 min group): 90.0% | Swelling, total (cases) ([2]; 5.0 mg/kg, 20 min group): 18 | crust level Moderate thick and fractional, (%) ([2]; 5.0 mg/kg, 20 min group): (5.0) % | crust level Moderate thick and full, (%) ([2]; 5.0 mg/kg, 20 min group): (0.0) % | crust level None, (%) ([2]; 5.0 mg/kg, 20 min group): (25.0) % | crust level Thin and fractional, (%) ([2]; 5.0 mg/kg, 20 min group): (50.0) % | crust level Thin and full, (%) ([2]; 5.0 mg/kg, 20 min group): (20.0) % | Blister, Mild (cases) ([2]; 5.0 mg/kg, 30 min group): 2 | Blister, Moderate (cases) ([2]; 5.0 mg/kg, 30 min group): 0 | Blister, Rate (%) ([2]; 5.0 mg/kg, 30 min group): 10.0% | Blister, total (cases) ([2]; 5.0 mg/kg, 30 min group): 2 | Burning, Mild (cases) ([2]; 5.0 mg/kg, 30 min group): 0 | Burning, Moderate (cases) ([2]; 5.0 mg/kg, 30 min group): 1 | Burning, Rate (%) ([2]; 5.0 mg/kg, 30 min group): 5.0% | Burning, total (cases) ([2]; 5.0 mg/kg, 30 min group): 1 | Pain, Mild (cases) ([2]; 5.0 mg/kg, 30 min group): 3 | Pain, Moderate (cases) ([2]; 5.0 mg/kg, 30 min group): 12 | Pain, Rate (%) ([2]; 5.0 mg/kg, 30 min group): 75.0% | Pain, total (cases) ([2]; 5.0 mg/kg, 30 min group): 15 | Redness, Mild (cases) ([2]; 5.0 mg/kg, 30 min group): 0 | Redness, Moderate (cases) ([2]; 5.0 mg/kg, 30 min group): 2 | Redness, Rate (%) ([2]; 5.0 mg/kg, 30 min group): 10.0% | Redness, total (cases) ([2]; 5.0 mg/kg, 30 min group): 2 | Swelling, Mild (cases) ([2]; 5.0 mg/kg, 30 min group): 6 | Swelling, Moderate (cases) ([2]; 5.0 mg/kg, 30 min group): 12 | Swelling, Rate (%) ([2]; 5.0 mg/kg, 30 min group): 90.0% | Swelling, total (cases) ([2]; 5.0 mg/kg, 30 min group): 18 | crust level Moderate thick and fractional, (%) ([2]; 5.0 mg/kg, 30 min group): (5.0) % | crust level Moderate thick and full, (%) ([2]; 5.0 mg/kg, 30 min group): (15.0) % | crust level None, (%) ([2]; 5.0 mg/kg, 30 min group): (15.0) % | crust level Thin and fractional, (%) ([2]; 5.0 mg/kg, 30 min group): (25.0) % | crust level Thin and full, (%) ([2]; 5.0 mg/kg, 30 min group): (40.0) % | severity of adverse effects ([2]; Part A, 5.0 mg/kg, irradiation 20 or 30 min): mild or moderate | scars [2, 3]: no scars were present | serious-thick crusts [2, 3]: No serious-thick crusts occurred | Crust Total, Rate (%) [2, 4]: 34.7% | Crust level Mild, Rate (%) [2, 4]: 34.7% | Crust level Moderate, Rate (%) [2, 4]: 0.0% | Crust level Serious, Rate (%) [2, 4]: 0.0% | Crust Total, Rate (%) [2, 5]: 88.01% | Crust level Mild, Rate (%) [2, 5]: 60.0% | Crust level Moderate, Rate (%) [2, 5]: 28.0% | Crust level Serious, Rate (%) [2, 5]: 0.0% | scars [2, 6]: no scars were formed | serious-thick crusts [2, 6]: No serious-thick crusts occurred

From patent US20120029045A1, “METHOD FOR TREATING PORT WINE STAINS” (SHANGHAI FUDAN-ZHANGJIANG BIO-PHARMACEUTICAL CO., LTD., priority 2010, published 2012)
